According to article PMC9278437 (Journal of Enzyme Inhibition and Medicinal Chemistry, 2022):

Key:
[1] = system: breast cancer (MCF-7) cell line; experiment: In vitro anti-proliferative activity, MTT assay, MCF-7; type: cell-based, human; details: for IC50: Homo sapiens, MCF7, 48 h, read-out: In vitro IC50 (nM) Mean ± SD MCF-7, MTT, 48 h, mean ± SD, n = 3; for In vitro IC50 (nM) Mean ± SD MCF-7: MTT, 48 h, n = 3
[2] = system: hepatocellular carcinoma (HepG-2) cell line; experiment: In vitro anti-proliferative activity, MTT assay, HepG-2; type: cell-based, human; details: for IC50: Homo sapiens, HepG2, 48 h, read-out: In vitro IC50 (nM) Mean ± SD HepG-2; for In vitro IC50 (nM) Mean ± SD HepG-2: MTT, 48 h, n = 3
[3] = molecular target: CDK2/cyclin A2 (Homo sapiens, UniProt P24941); experiment: biochemical
[4] = system: colorectal carcinoma (HCT-116) cell line; experiment: In vitro anti-proliferative activity, MTT assay, HCT-116; type: cell-based, human; details: 48 h, n = 3

N=c1c2cnn(C(=O)CNc3ccc(F)cc3)c2ncn1N [Compound 4, 1-(5-Amino-4-imino-4,5-dihydro-1H-pyrazolo[3,4-d]pyrimidin-1-yl)-2-((4-fluorophenyl)amino)ethan-1-one]
IC50 [1]: 150 ± 1.5 nM | IC50 [2]: 603 ± 1.9 nM | IC50 [3]: 1340 ± 21 nM

N=c1c2cnn(C(=O)CNc3ccc(F)cc3)c2ncn1N[C@@H]1O[C@H](CO)[C@@H](O)[C@H](O)[C@H]1O [Compound 5, 1-(4-Imino-5-((ß-D-glucopyranosyl)amino)-4,5-dihydro-1H-pyrazolo[3,4-d]pyrimidin-1-yl)-2-((4-fluorophenyl)amino)ethan-1-one]
IC50 [1]: 663 ± 1.4 nM | IC50 [2]: 690 ± 0.48 nM | IC50 [3]: 2050 ± 50 nM

N=c1c2cnn(C(=O)CNc3ccc(F)cc3)c2ncn1N[C@@H]1OC[C@@H](O)[C@H](O)[C@H]1O [Compound 6, 1-(4-Imino-5-((ß-D-xylopyranosyl)amino)-4,5-dihydro-1H-pyrazolo[3,4-d]pyrimidin-1-yl)-2-((4-fluorophenyl)amino)ethan-1-one]
IC50 [1]: 621 ± 2.7 nM | IC50 [2]: 98 ± 0.78 nM | IC50 [3]: 559 ± 13 nM

O=C(CNc1ccc(F)cc1)n1ncc2c1ncn1[nH]c(=S)nc21 [Compound 7, 1-(2-Thioxo-2,3-dihydro-7H-pyrazolo[4,3-e][1,2,4]triazolo[1,5-c]pyrimidin-7-yl)-2-((4-fluorophenyl)amino)ethan-1-one]
IC50 [1]: 937 ± 0.93 nM | IC50 [2]: 63 ± 0.11 nM | In vitro IC50 (nM) Mean ± SD HepG-2 [2]: moderate activity | IC50 [3]: 274 ± 5 nM

N#CCSc1nc2c3cnn(C(=O)CNc4ccc(F)cc4)c3ncn2n1 [Compound 8, 2-((7-((4-Fluorophenyl)glycyl)-7H-pyrazolo[4,3-e][1,2,4]triazolo[1,5-c]pyrimidin-2-yl)thio)acetonitrile]
IC50 [1]: 72 ± 0.53 nM | IC50 [2]: 8 ± 0.34 nM | In vitro IC50 (nM) Mean ± SD HepG-2 [2]: potent activity | IC50 [3]: 1060 ± 59 nM

COC(CSc1nc2c3cnn(C(=O)CNc4ccc(F)cc4)c3ncn2n1)OC [Compound 9, 1-(2-((2,2-Dimethoxyethyl)thio)-7H-pyrazolo[4,3-e][1,2,4]triazolo[1,5-c]pyrimidin-7-yl)-2-((4-fluorophenyl)amino)ethan-1-one]
IC50 [1]: 60 ± 0.49 nM | IC50 [2]: 690 ± 1.6 nM | In vitro IC50 (nM) Mean ± SD HepG-2 [2]: no activity | IC50 [3]: 881 ± 49 nM

O=C(CNc1ccc(F)cc1)n1ncc2c1ncn1nc(SCC(O)CO)nc21 (stereo not drawn) [Compound 10, 1-{2-[(2,3-Dihydroxypropyl)thio]-7H-pyrazolo[4,3-e][1,2,4]triazolo[1,5-c]pyrimidin-7-yl}-2-((4-fluorophenyl)amino)ethan-1-one]
IC50 [1]: 95 ± 1.9 nM | In vitro IC50 (nM) Mean ± SD MCF-7 [1]: potent activity | IC50 [2]: 987 ± 2 nM | IC50 [3]: 506 ± 11 nM

CC(=O)OCC(CSc1nc2c3cnn(C(=O)CNc4ccc(F)cc4)c3ncn2n1)OC(C)=O (stereo not drawn) [Compound 11, 3-((7-((4-Fluorophenyl)glycyl)-7H-pyrazolo[4,3-e][1,2,4]triazolo[1,5-c]pyrimidin-2-yl)thio)propane-1,2-diyl diacetate]
IC50 [1]: 63 ± 1.1 nM | In vitro IC50 (nM) Mean ± SD MCF-7 [1]: good activity | IC50 [2]: 49 ± 0.17 nM | In vitro IC50 (nM) Mean ± SD HepG-2 [2]: moderate activity | In vitro IC50 (nM) Mean ± SD HCT-116 [4]: most potent cytotoxic results | IC50 [3]: 89 ± 5 nM

O=C(CNc1ccc(F)cc1)n1ncc2c1ncn1nc(SCCO)nc21 [Compound 12, 1-(2-((2-Hydroxyethyl)thio)-7H-pyrazolo[4,3-e][1,2,4]triazolo[1,5-c]pyrimidin-7-yl)-2-((4-fluorophenyl)amino)ethan-1-one]
IC50 [1]: 613 ± 0.33 nM | In vitro IC50 (nM) Mean ± SD MCF-7 [1]: inactive | IC50 [2]: 928 ± 0.97 nM | In vitro IC50 (nM) Mean ± SD HepG-2 [2]: inactive | In vitro IC50 (nM) Mean ± SD HCT-116 [4]: inactive | IC50 [3]: 961 ± 19 nM

CC(=O)OCCSc1nc2c3cnn(C(=O)CNc4ccc(F)cc4)c3ncn2n1 [Compound 13, 2-((7-((4-Fluorophenyl)glycyl)-7H-pyrazolo[4,3-e][1,2,4]triazolo[1,5-c]pyrimidin-2-yl)thio)ethyl acetate]
IC50 [1]: 55 ± 0.43 nM | In vitro IC50 (nM) Mean ± SD MCF-7 [1]: good activity | IC50 [2]: 74 ± 1.1 nM | In vitro IC50 (nM) Mean ± SD HepG-2 [2]: moderate activity | In vitro IC50 (nM) Mean ± SD HCT-116 [4]: most potent cytotoxic results | IC50 [3]: 130 ± 7 nM

CNC(=O)c1cc(Oc2ccc(NC(=O)Nc3ccc(Cl)c(C(F)(F)F)c3)cc2)ccn1 [Sorafenib, reference compound]
IC50 [1]: 144 ± 0.47 nM | IC50 [2]: 19 ± 0.29 nM
